Here are results for 2 substances from US9844546B2, “Antibody against human HIF hydroxylase” (OXFORD UNIVERSITY INNOVATION LIMITED, priority 2001, dated 2017).

The assay deals with pVHL. Description: pVHL capture assay using biotinylated synthetic polypeptides. Type of assay: binding, human. The note with it: wild type or mutant (Pro86His) pVHL; with or without cell extract. As to the method: We synthesized a polypeptide (HIF-1α residues 556-574), containing a trans-4-hydroxy-S-proline residue at position 564 (19:Pro564Hyp), since the trans-4-hydroxylation is the commonest enzymatic proline oxidation (25). A polypeptide blocking assay was carried out using the 19:Pro564Hyp modified polypeptide and, as a control, the unmodified polypeptide without the trans-4-hydroxylation (19:WT). The 19:WT polypeptide was either incubated with cell extract before the binding assay or was untreated. The 19:Pro564Hyp polypeptide was added to a mixture of HIF-1α and pVHL-HA IVTTs at a concentration of 1, 0.25, 0.05 or 0.01 μM and the cell extract treated or untreated 19:WT polypeptide at a concentration of 0.5 μM. Interaction of HIF-1α with pVHL was then assayed by anti-HA immunoprecipitation. […] A pVHL capture assay was then carried out using biotinylated synthetic polypeptides. The same polypeptides, 19:Pro564Hyp and 19:WT were assessed for the ability to capture wild type or mutant (Pro86His) pVHL. […] In both cases capture was specific for wild type, as opposed to mutant, pVHL.
• 1. G. L. Semenza, Genes Dev 14, 1983-91. (2000). • 2. N. V. Iyer, et al., Genes Dev. 12, 149-162 (1997). • 3. E. Maltepe, J. V. Schmidt, D. Baunoch, C. A. Bradfield, M. C. Simon, Nature 386, 403-407 (1997). • 4. G. L. Wang, B.-H. Jiang, E. A. Rue, G. L. Semenza, Proc. Natl. Acad. Sci. USA 92, 5510-5514 (1995). • 5. […]

Entries after “also recorded” stand apart in the source; their conditions may differ.

With “19:WT: polypeptide comprising HIF-1α residues 556 to 574”, the “capture of pVHL by biotinylated polypeptide” value was “captured pVHL only after incubation with cell extract; also recorded: could not interact without prior incubation with cell extract”.

As for “19:Pro564Hyp: polypeptide (HIF-1α residues 556-574) containing a trans-4-hydroxy-S-proline residue at position 564”, the “capture of pVHL by biotinylated polypeptide” value is reported as “captured wild type pVHL without pre-treatment; also recorded: specifically captured wild type but not mutant pVHL”.
